Several values for one entry are separate records, joined by “and”; a condition that tells them apart may be missing. Equal values may be shown once. Read-outs that look alike come from different tables or passages of the source.
How the values were obtained:
[1] = tested on: patients with Wilson disease (WD); assay: Study 301: Clinical Global Impression scales (CGI-I, CGI-S); type: in vivo, human
Source text: Clinical Global Impression-[…]: The Clinical Global Impression (CGI) rating scales were commonly used measures of symptom severity, treatment response, and the efficacy of treatments in treatment studies of adult and pediatric patients with mental disorders.
The Clinical Global Impression-Severity scale (CGI-S) is a 7-point scale that requires the clinician to rate the severity of the patient's illness at the time of assessment, relative to the clinician's past experience with patients who have the same diagnosis. Considering total clinical experience, a patient was assessed on severity of illness at the time of rating as: 1, normal, not at all ill; 2, borderline ill; 3, mildly ill; 4, moderately ill; 5, markedly ill; 6, severely ill; or 7, extremely ill.
While transformed CGI-I (TCGI-I) assesses how the WD patients condition changed compared to baseline, CGI-I may indicate the overall clinical improvement of the patients in the study compared to baseline for each treatment arm.

copper = assay: Study 301: plasma copper pharmacodynamics (dNCC, LBC, plasma total copper; daily mean AUEC); type: in vivo, human; conditions: for Mean Daily dNCC AUEC0-48w, Mean (SD): Full Analysis Set; for Mean Daily dNCC AUEC0-48w, Mean (SD) / Mean Daily dNCC AUEC0-48w, LSM (SE): multiple imputation
Source text: FIG. 1 provides a schematic view of the study design. […] This study is referred throughout as Study 301.
The primary endpoint integrated copper mobilization and sequestration (i.e., copper control) throughout the 48-week Primary Treatment Period by assessment of daily mean area under the effect-time curve (AUEC) of directly measured non-ceruloplasmin-bound copper (dNCC) concentration. […] Measurement of dNCC in plasma is highly sensitive and accurate, requiring no special formulas or assumptions. As proposed, dNCC AUEC0-48W is an indirect measure of copper mobilization and sequestration.
This assessment is also applicable to SoC treatments. In addition, plasma Cp, CpC, plasma total copper, and LBC were measured with AUEC calculated for plasma total copper and LBC.
Pharmacodynamics: Blood samples were collected to directly measure plasma total copper, PUF copper, dNCC, and LBC. Calculations may be performed for cNCC and cNCCconnected, the latter of which is non-ceruloplasmin-bound and non-molybdenum-albumin-bound copper.
The AUEC for dNCC concentration was calculated using the trapezoidal rule, and then divided by number of days to yield a mean daily AUEC plasma dNCC concentration from baseline to Week 48 (expressed as μmol/L and described as AUEC0-48W).
Tests were performed at a significance level of 0.05 (2-sided).

[2] = tested on: patients with Wilson disease (WD)
Source text: The UWDRS Part II total score results for this pooled population are presented in Table 16 and FIG. 13 and the UWDRS Part III total score results are in Table 17 and FIG. 14. The UWDRS Part III Functional Subscale (comprised of the items arising from a chair, gait, handwriting and speech) results for this pooled population are presented in Table 18 and FIG. 15.

[3] = Study 301, Cohort 1, lower part of Table 5
[4] = Study 301, Cohort 2, lower part of Table 5
[5] = Study 301, Overall, lower part of Table 5

Bis-choline tetrathiomolybdate [BC-TTM]
CGI-I scores at week 48 versus SoC ([1]; Study 301, FIG. 22): improvements
CGI-S (1-7, 1 is normal), Change from Baseline at 48 weeks, Mean ([1]; Study 301, Full Analysis Set): −0.5
CGI-S, Difference at 48 weeks, LSM (SE), BC-TTM vs SoC ([1]; Study 301, Full Analysis Set): −0.2 (0.13)
T-CGI-I (−3 to 3, −3 is very much improved) at 48 weeks, Mean ([1]; Study 301, Full Analysis Set): −0.7
T-CGI-I, Difference at 48 weeks, LSM (SE), BC-TTM vs SoC ([1]; Study 301, Full Analysis Set): −0.3 (0.15)
AUEC(0-48 week) LBC, Mean (copper; Study 301, Adolescent): 1.5 mmol/L
AUEC(0-48 week) LBC, Median (copper; Study 301, Adolescent): 1.2 mmol/L
AUEC(0-48 week) PTC (plasma total copper), Mean (copper; Study 301, Adolescent): 7.5 mmol/L
AUEC(0-48 week) PTC (plasma total copper), Median (copper; Study 301, Adolescent): 5.4 mmol/L
AUEC(0-48 week) dNCC, Mean (copper; Study 301, Adolescent): 2.7 mmol/L
AUEC(0-48 week) dNCC, Median (copper; Study 301, Adolescent): 2.3 mmol/L
AUEC(0-48 week) LBC, Mean (copper; Study 301, Adult): 1.8 mmol/L
AUEC(0-48 week) LBC, Median (copper; Study 301, Adult): 1.2 mmol/L
AUEC(0-48 week) PTC (plasma total copper), Mean (copper; Study 301, Adult): 7.8 mmol/L
AUEC(0-48 week) PTC (plasma total copper), Median (copper; Study 301, Adult): 7.3 mmol/L
AUEC(0-48 week) dNCC, Mean (copper; Study 301, Adult): 3.2 mmol/L
AUEC(0-48 week) dNCC, Median (copper; Study 301, Adult): 2.2 mmol/L
Mean Daily dNCC AUEC0-48w, LSM Diff (SE), BC-TTM vs SoC (copper; Study 301, Cohort 1): 1.64 (0.254) μmol/L
Mean Daily dNCC AUEC0-48w, Mean (SD) (copper; Study 301, Cohort 1 (prior SoC >28 days)): 2.68 (2.118) μmol/L
Mean Daily dNCC AUEC0-48w, LSM (SE) (copper; Study 301, Cohort 1, ANCOVA): 2.50 (0.150) μmol/L
Mean Daily dNCC AUEC0-48w, Between Group LSM Diff (SE) (copper; [3]): 1.72 (0.277) μmol/L
Mean Daily dNCC AUEC0-48w, Within Group LSM (SE) (copper; [3]): 2.59 (0.165) μmol/L
Mean Daily dNCC AUEC0-48w, LSM Diff (SE), BC-TTM vs SoC (copper; Study 301, Cohort 2): 3.79 (0.584) μmol/L
Mean Daily dNCC AUEC0-48w, Mean (SD) (copper; Study 301, Cohort 2 (treatment-naïve or SoC ≤28 days)): 4.58 (2.526) μmol/L
Mean Daily dNCC AUEC0-48w, LSM (SE) (copper; Study 301, Cohort 2, ANCOVA): 4.76 (0.319) μmol/L
Mean Daily dNCC AUEC0-48w, Between Group LSM Diff (SE) (copper; [4]): 3.68 (0.568) μmol/L
Mean Daily dNCC AUEC0-48w, Within Group LSM (SE) (copper; [4]): 4.64 (0.315) μmol/L
time of peak of plasma dNCC (copper; Study 301, FIG. 2): 4 to 6 weeks
Mean Daily dNCC AUEC0-48w, LSM Diff (SE), BC-TTM vs SoC (copper; Study 301, Overall): 2.18 (0.244) μmol/L
Mean Daily dNCC AUEC0-48w, LSM (SE) (copper; Study 301, Overall, ANCOVA): 3.18 μmol/L and 3.18 (0.167) μmol/L
Mean Daily dNCC AUEC0-48w, Mean (SD) (copper; Study 301, Overall): 3.12 (2.347) μmol/L
Mean Daily dNCC AUEC0-48w, Between Group LSM Diff (SE) (copper; [5]): 2.12 (0.253) μmol/L
Mean Daily dNCC AUEC0-48w, Within Group LSM (SE) (copper; [5]): 3.06 (0.179) μmol/L
UWDRS Part III (Range 0-175) LSM change from baseline ([2]; BC-TTM exposure 4 wks): −0.83
UWDRS Part III (Range 0-175) Mean change from baseline ([2]; BC-TTM exposure 4 wks): −0.72
UWDRS Part III Functional Subscale (Range 0-10) LSM change from baseline ([2]; BC-TTM exposure 4 wks): −0.083
UWDRS Part III Functional Subscale (Range 0-10) Mean change from baseline ([2]; BC-TTM exposure 4 wks): −0.072
UWDRS Part III (Range 0-175) LSM change from baseline ([2]; BC-TTM exposure 12 wks): −1.13
UWDRS Part III (Range 0-175) Mean change from baseline ([2]; BC-TTM exposure 12 wks): −1.11
UWDRS Part III Functional Subscale (Range 0-10) LSM change from baseline ([2]; BC-TTM exposure 12 wks): −0.141
UWDRS Part III Functional Subscale (Range 0-10) Mean change from baseline ([2]; BC-TTM exposure 12 wks): −0.137
UWDRS Part III (Range 0-175) LSM change from baseline ([2]; BC-TTM exposure 24 wks): −1.10
UWDRS Part III (Range 0-175) Mean change from baseline ([2]; BC-TTM exposure 24 wks): −0.97
UWDRS Part III Functional Subscale (Range 0-10) LSM change from baseline ([2]; BC-TTM exposure 24 wks): −0.146
UWDRS Part III Functional Subscale (Range 0-10) Mean change from baseline ([2]; BC-TTM exposure 24 wks): −0.157
UWDRS Part III (Range 0-175) LSM change from baseline ([2]; BC-TTM exposure 36 wks): −1.85
UWDRS Part III (Range 0-175) Mean change from baseline ([2]; BC-TTM exposure 36 wks): −2.38
UWDRS Part III Functional Subscale (Range 0-10) LSM change from baseline ([2]; BC-TTM exposure 36 wks): −0.202
UWDRS Part III Functional Subscale (Range 0-10) Mean change from baseline ([2]; BC-TTM exposure 36 wks): −0.286
UWDRS Part III (Range 0-175) LSM change from baseline ([2]; BC-TTM exposure 48 wks): −2.76
UWDRS Part III (Range 0-175) Mean change from baseline ([2]; BC-TTM exposure 48 wks): −3.37
UWDRS Part III Functional Subscale (Range 0-10) LSM change from baseline ([2]; BC-TTM exposure 48 wks): −0.285
UWDRS Part III Functional Subscale (Range 0-10) Mean change from baseline ([2]; BC-TTM exposure 48 wks): −0.345
UWDRS Part III (Range 0-175) LSM change from baseline ([2]; BC-TTM exposure 60 wks): −3.24
UWDRS Part III (Range 0-175) Mean change from baseline ([2]; BC-TTM exposure 60 wks): −2.00
